For series [1], the target named is T1, human KDR (VEGF-receptor-2) (Homo sapiens, UniProt P35968).
T1 construct: beginning at Met-806; (5′-ATG GAT CCA GAT GM CTC CCA TTG) and ending at Val-1356; made in house
Description: KDR kinase enzyme assay (DELFIA, KDR-IC-Flag, poly(Glu4-Tyr) peptide). It counts as biochemical. As to conditions: for inhibition at 0.1 µM: Concentration 100 nM; for inhibition at 0.1 µM / inhibition at 1 µM: read-out: % Inhibition; for inhibition at 1 µM: Concentration 1000 nM.

Series [2] concerns the target T1, human KDR (VEGF-receptor-2). Description: KDR kinase enzyme assay wash-out experiments (irreversible inhibition). It counts as biochemical. As for the experimental part:
To determine if compounds bound irreversibly to enzyme, plates were washed after the enzyme plus compound pre-incubation step and prior to the addition of ATP. Parallel plates were tested wherein one plate was processed exactly as above while a second plate was washed three times in 100 μl of 4 mM HEPES, pH 7.4, to remove unbound compound. 1× Kinase buffer (30 μl of 1 mM MnCl2, 4 mM HEPES, pH 7.4, 20 μM Na3VO4) and 20 μl of ATP/MgCl2 were added to the wash-out plate. Detection of phosphotyrosinylated peptide for both plates was performed as described above.
For each inhibitor shown in Table 2, two IC50 determinations are shown, one under normal conditions and the other where an intermediate wash-out step is carried out. […] If there was a large increase in the IC50 value in the wash-out experiment compared to the experiment where there was no wash-out, then it was determined that the compound was behaving as a conventional reversible binding inhibitor.

The test system of series [3] is Human colon carcinoma DLD-1. Description: Growth of human tumor xenografts in the nude mouse model. As to conditions: for % T/C Day 7 / % T/C Day 14 / % T/C Day 21 / Relative tumor growth Day 7 / Relative tumor growth Day 14 / Relative tumor growth Day 21: DLD1, nude mouse.
Description: Human colon carcinoma DLD-1 cells (American Type Culture Collection, Rockville, Md.) were grown in tissue culture in DMEM (Gibco/BRL, Gaithersburg, Md.) supplemented with 10% FBS (Gemini Bio-Products Inc., Calabasas, Calif.). Athymic nu/nu female mice (Charles River, Wilmington, Mass.) were injected subcutaneously (SC) in the flank area with 6×10^6 DLD-1 cells. When tumors attained a mass of between 75 and 100 mg, the mice were randomly assigned into treatment groups with 5 animals per group. Animals were treated orally (PO) once daily on days 1 through 20 post staging (day zero) with a dose range (50 to 100 mg/kg/dose) of compound prepared in 0.5% Methocel/0.5% Tween 80 or 0.5% Methocel/0.4% Tween 80 as the vehicle control. Tumor mass was determined every 7 days [(length×width^2)/2] for 21 days post-staging. Relative tumor growth (mean tumor mass on days 7, 14 and 21 divided by the mean tumor mass on day zero) was determined for each treatment group.
The test system of series [4] is Human umbilical vein endothelial cells (HUVEC). Briefly: HUVEC proliferation assay, VEGF-dependent growth ([3H]-thymidine incorporation). The series is classed as cell-based. As to conditions: for inhibition at 10 µM / inhibition at 0.1 µM / inhibition at 1 µM: Homo sapiens, HUVEC; for inhibition at 0.1 µM: conc. 100 nM; for inhibition at 1 µM: conc. 1000 nM. As for the experimental part: Cells were plated into 96-well dishes (4000 cells per well) and allowed to attach overnight. HUVEC were rinsed one time with 100 μl of EBMc-V (EBM supplemented with all above components except serum or VEGF), then 50 ul of EBMc-V was added to cells. Compounds were prepared at 200× stocks in DMSO, diluted into EBMc-V media as 4× stocks, then 50 ul added to appropriate wells. Finally, 100 μl of 2×VEGF (100 ng/ml prepared in EBMc-V; final 50 ng/ml VEGF) was added to all VEGF-treated wells. EBMc-V (no VEGF) was added to negative control wells. Parallel compound-treated plates were prepared except that 100 μl of EGM2 media containing 2% serum but lacking VEGF (EGMc-V) was added. Cells were incubated for 4-5 days at 37° C.
DNA synthesis was assessed by thymidine incorporation. Cells were incubated for 5 hours in 1 μCi of [^3H]-thymidine (PerkinElmer) by addition of 10 ul of 0.1 μCi/ul thymidine prepared in PBS to each well. After incubation, media was aspirated and the cells trypsinized and collected onto a mat using a vacuum-based Micro Cell Harvester (Skatron). [^3H]-thymidine was counted in a liquid scintillation counter. Compounds evaluated for ability to inhibit VEGF-dependent growth of human umbilical vein endothelial cells (HUVEC).
(In general: Uptake of a labelled nucleoside into DNA is a usual measure of proliferation.)

A further series deals with KDR (Homo sapiens, UniProt P35968). Briefly: cell-based. The conditions noted are these: for inhibition at 1 µM: read-out: % Inhibition of KDR kinase autophosphorylation in KDR15 cells, compound conc. 1000 nM; for IC50: IC50 (nM), inhibition of KDR kinase autophosphorylation in KDR15 cells, KDR15 cells, VEGF 50 ng/ml, phospho-KDR-Y996 immunoblot.
Setting [5] is: 50 mg/kg/dose PO, days 1 through 20.
The mark [6] stands for this setting: 100 mg/kg/dose PO, days 1 through 20.
[7] abbreviates: Table 6, dose not given, administered on days 1 through 20.

The text below walks through data of patent US20070299092A1 (Wyeth, priority 2004, published 2007).

Each structure is given as a SMILES string. Several values for one entry are separate records, joined by “and”; a condition that tells them apart may be missing. Equal entries are not always repeated. Where two headings read alike, the source gives them in different places.

T1 sequence (P35968 806-1356): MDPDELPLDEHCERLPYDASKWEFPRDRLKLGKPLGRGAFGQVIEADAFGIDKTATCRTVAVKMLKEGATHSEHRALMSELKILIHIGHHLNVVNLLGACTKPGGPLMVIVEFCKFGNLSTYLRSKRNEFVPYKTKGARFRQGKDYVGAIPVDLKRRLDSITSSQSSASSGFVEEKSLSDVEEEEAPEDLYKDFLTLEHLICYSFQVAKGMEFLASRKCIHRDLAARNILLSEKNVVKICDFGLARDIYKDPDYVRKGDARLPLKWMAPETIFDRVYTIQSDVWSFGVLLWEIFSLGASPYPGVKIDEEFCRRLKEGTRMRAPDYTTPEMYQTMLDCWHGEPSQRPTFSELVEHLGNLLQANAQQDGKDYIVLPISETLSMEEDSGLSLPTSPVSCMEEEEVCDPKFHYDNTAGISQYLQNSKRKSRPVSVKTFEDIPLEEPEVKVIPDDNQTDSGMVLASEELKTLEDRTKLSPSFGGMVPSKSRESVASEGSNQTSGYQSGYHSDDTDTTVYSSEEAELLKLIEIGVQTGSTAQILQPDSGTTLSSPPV
Sequence of KDR (P35968 20-1356): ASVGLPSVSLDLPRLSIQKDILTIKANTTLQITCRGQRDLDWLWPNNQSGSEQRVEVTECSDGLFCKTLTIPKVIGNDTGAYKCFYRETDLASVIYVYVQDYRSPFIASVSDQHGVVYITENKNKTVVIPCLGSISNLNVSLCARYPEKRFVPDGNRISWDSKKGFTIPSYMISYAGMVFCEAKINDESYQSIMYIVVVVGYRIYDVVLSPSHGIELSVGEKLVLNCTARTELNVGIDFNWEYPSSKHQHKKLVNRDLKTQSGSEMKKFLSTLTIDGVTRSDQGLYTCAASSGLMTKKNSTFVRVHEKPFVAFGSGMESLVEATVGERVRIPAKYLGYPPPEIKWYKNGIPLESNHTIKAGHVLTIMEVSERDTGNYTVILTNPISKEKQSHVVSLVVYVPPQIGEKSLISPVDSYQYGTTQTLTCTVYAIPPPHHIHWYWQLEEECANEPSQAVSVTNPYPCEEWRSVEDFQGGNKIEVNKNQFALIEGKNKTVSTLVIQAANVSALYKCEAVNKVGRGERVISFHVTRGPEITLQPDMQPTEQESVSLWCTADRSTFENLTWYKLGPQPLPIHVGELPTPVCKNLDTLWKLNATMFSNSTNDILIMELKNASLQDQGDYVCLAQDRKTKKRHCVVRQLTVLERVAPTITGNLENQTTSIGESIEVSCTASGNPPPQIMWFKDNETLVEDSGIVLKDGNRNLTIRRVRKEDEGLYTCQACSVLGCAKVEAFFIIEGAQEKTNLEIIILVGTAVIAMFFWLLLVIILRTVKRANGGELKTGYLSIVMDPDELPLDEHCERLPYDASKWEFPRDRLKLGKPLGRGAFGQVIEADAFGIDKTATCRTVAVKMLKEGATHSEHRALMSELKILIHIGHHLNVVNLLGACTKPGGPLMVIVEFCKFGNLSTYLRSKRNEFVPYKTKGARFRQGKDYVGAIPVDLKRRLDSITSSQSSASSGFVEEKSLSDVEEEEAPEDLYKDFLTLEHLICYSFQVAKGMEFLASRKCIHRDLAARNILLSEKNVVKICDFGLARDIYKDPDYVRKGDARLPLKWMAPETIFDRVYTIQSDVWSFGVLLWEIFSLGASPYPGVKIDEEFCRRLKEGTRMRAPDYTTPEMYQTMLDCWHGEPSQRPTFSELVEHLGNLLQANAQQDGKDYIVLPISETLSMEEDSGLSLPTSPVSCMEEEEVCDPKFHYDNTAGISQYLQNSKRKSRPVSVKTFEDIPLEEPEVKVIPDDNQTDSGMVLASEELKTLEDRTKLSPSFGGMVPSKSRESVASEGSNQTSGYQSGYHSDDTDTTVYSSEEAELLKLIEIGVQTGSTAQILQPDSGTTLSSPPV

Molecule `COCCOc1cc2ncnc(NC3=CC(=O)C(Oc4ccccc4)=CC3=O)c2cc1OC` registered a melting point of 177 to 180 °C.
The same measure, in the same setting: the result for `COCCOC1=CC(=O)C(Nc2ncnc3cc(OCCOC)c(OC)cc23)=CC1=O` reads 211 to 212 °C.
Turning to `COCCOc1cc2ncnc(NC3=CC(=O)C(Sc4nccs4)=C(OC)C3=O)c2cc1OC` [Example 20], the results for the IC50 in series [1] (ATP conc. 10 μM), in series [2] (no wash) and in series [2] (wash out) were 17.9 nM, 17.9 nM and 33.1 nM, respectively. The inhibition at 0.1 µM in series [1] (ATP conc. 10 μM) is 92%. The inhibition at 1 µM in series [1] (ATP conc. 10 μM) stood at 90%; in series [1] (ATP conc. 1000 μM), 97%.
For `COCCOc1cc2ncnc(NC3=CC(=O)C(Oc4ccc(-n5ccnc5)cc4)=CC3=O)c2cc1OC` [Example 26, 2-[4-(1H-imidazol-1-yl)phenoxy]-5-{[6-methoxy-7-(2-methoxyethoxy)quinazolin-4-yl]amino}benzo-1,4-quinone], in series [3] (setting [5]), the “S/T = # of Survivors/# of Treated on Day +21 post tumor staging” value was 5/5, the “% T/C Day 7” value was 84%, the “% T/C Day 14” value turned out to be 62% and the “% T/C Day 21” value came to 61%. In series [3] (setting [5]), the “Relative tumor growth Day 7” value was found to be 4.21, the “Relative tumor growth Day 14” value is recorded as 6.93 and the “Relative tumor growth Day 21” value stood at 10.50. In addition, in series [3] (setting [6]), the “S/T = # of Survivors/# of Treated on Day +21 post tumor staging” value is on record as 5/5, the “% T/C Day 7” value is 67%, the “% T/C Day 14” value turned out to be 55% and the “% T/C Day 21” value is 51%. Further, in series [3] (setting [6]), the “Relative tumor growth Day 7” value is given as 3.36, the “Relative tumor growth Day 14” value amounted to 6.10 and the “Relative tumor growth Day 21” value came to 8.80. Moreover, in series [4] (conc. 10000 nM), the inhibition at 10 µM amounted to 89%; the “% Inhibition of VEGF-dependent growth of HUVEC” value was 96% and 99% and 95% and 87% and 91%.
`COCCOc1cc2ncnc(NC3=CC(=O)C(Oc4ccc(C(=O)c5ccccc5)cc4)=CC3=O)c2cc1OC` [Example 39, 2-(4-benzoylphenoxy)-5-{[6-methoxy-7-(2-methoxyethoxy)quinazolin-4-yl]amino}benzo-1,4-quinone]: in series [1] (ATP conc. 10 μM), half-maximal inhibition (IC50) required 3.5 nM, the inhibition at 0.1 µM came to 91% and the inhibition at 1 µM was 94%. The inhibition at 1 µM at KDR was 140%. In series [4], the inhibition at 0.1 µM came to 18% and the inhibition at 1 µM was determined as 58%. For the same molecule, the inhibition at 10 µM in series [4] (conc. 10000 nM) was determined as 99%.
`COCCOc1cc2ncnc(NC3=CC(=O)C(Oc4ccc5c(c4)[nH]c4ccccc45)=CC3=O)c2cc1OC` [Example 41, 2-(9H-carbazol-2-yloxy)-5-{[6-methoxy-7-(2-methoxyethoxy)quinazolin-4-yl]amino}benzo-1,4-quinone]: in series [1] (ATP conc. 10 μM), the IC50 is 2 nM, the inhibition at 0.1 µM came out at 92% and the inhibition at 1 µM is 92%. In addition, the inhibition at 1 µM on KDR was 120%. Moreover, in series [4], the inhibition at 0.1 µM is -5% and the inhibition at 1 µM is 42%. Moreover, the inhibition at 10 µM in series [4] (conc. 10000 nM) was found to be 98%.
As for `COCCOc1cc2ncc(C#N)c(NC3=CC(=O)C(Oc4ccc(-n5ccnc5)cc4)=CC3=O)c2cc1OC` [Example 72, 4-({4-[4-(1H-imidazol-1-yl)phenoxy]-3,6-dioxocyclohexa-1,4-dien-1-yl}amino)-6-methoxy-7-(2-methoxyethoxy)quinoline-3-carbonitrile], the IC50 in series [1] (ATP conc. 10 μM) is 53.7 nM and 72.4 nM; in series [2] (no wash), 53.7 nM; in series [2] (wash out), 73.7 nM. Besides, in series [1] (ATP conc. 10 μM), the inhibition at 0.1 µM came out at 73%. Further, the inhibition at 1 µM in series [1] (ATP conc. 10 μM) is 93%; in series [1] (ATP conc. 1000 μM) it was 94%.
In the case of `COc1cc2ncnc(NC3=CC(=O)C(N(C)c4ccccc4)=CC3=O)c2cc1OC` [Example 85, 2-[(6,7-dimethoxyquinazolin-4-yl)amino]-5-[methyl(phenyl)amino]benzo-1,4-quinone], the melting point lay in the range of 204 to 206 °C. Moreover, in series [1] (ATP conc. 10 μM), the inhibition at 0.1 µM turned out to be 20% and the inhibition at 1 µM turned out to be 62%. Moreover, the inhibition at 1 µM in series [1] (ATP conc. 1000 μM) was 64%.
`COc1cc2ncnc(NC3=CC(=O)C(N4CCCCC4)=CC3=O)c2cc1OC` [Example 87, 2-[(6,7-dimethoxyquinazolin-4-yl)amino]-5-piperidin-1-ylbenzo-1,4-quinone] yielded a melting point of 226 to 227 °C. Further, in series [1] (ATP conc. 10 μM), the inhibition at 0.1 µM was 19% and the inhibition at 1 µM was 72%. Further, the inhibition at 1 µM in series [1] (ATP conc. 1000 μM) worked out at 85%.
Molecule `COc1cc2ncnc(NC3=CC(=O)C4(c5ccccc5)OC4C3=O)c2cc1OC` (stereo not drawn) [Example 100, 4-[(6,7-dimethoxyquinazolin-4-yl)amino]-1-phenyl-7-oxabicyclo[4.1.0]hept-3-ene-2,5-dione] returned a melting point of 252 to 253 °C.
In the case of `COc1cc2ncnc(NC3=CC(=O)C4(C(C)C)OC4C3=O)c2cc1OC` (stereo not drawn) [Example 107, 4-[(6,7-dimethoxy-4-quinazolinyl)amino]-1-isopropyl-7-oxabicyclo[4.1.0]hept-3-ene-2,5-dione], the melting point was 188 to 190 °C.
On to `COCCOc1cc2ncnc(NC3=CC(=O)C(N4CCCC4C(F)(F)F)=CC3=O)c2cc1OC` (stereo not drawn) [Example 150, 2-{[6-methoxy-7-(2-methoxyethoxy)quinazolin-4-yl]amino}-5-[2-(trifluoromethyl)pyrrolidin-1-yl]benzo-1,4-quinone], for which, in series [3] (setting [7]), the “% T/C Day 7” value was found to be 63%, the “% T/C Day 14” value is recorded as 82%, the “% T/C Day 21” value is 88% and the “Relative tumor growth Day 7” value was determined as 1.62. For the same molecule, in series [3] (setting [7]), the “Relative tumor growth Day 14” value is listed as 6.45 and the “Relative tumor growth Day 21” value is 12.54.
As for `COCCOc1cc2ncnc(NC3=C(SC)C(=O)C(Cl)=C(OC)C3=O)c2cc1OC` [Example 190, 2-chloro-3-methoxy-5-{[6-methoxy-7-(2-methoxyethoxy)quinazolin-4-yl]amino}-6-(methylthio)benzo-1,4-quinone], in series [3] (setting [7]), the “% T/C Day 7” value stood at 61%, the “% T/C Day 14” value is given as 94%, the “% T/C Day 21” value is 76% and the “Relative tumor growth Day 7” value was found to be 1.58. Further, in series [3] (setting [7]), the “Relative tumor growth Day 14” value was 7.41 and the “Relative tumor growth Day 21” value is on record as 10.74.
On to `COCCOc1cc2ncnc(NC3=CC(=O)C(OCC4CC4)=CC3=O)c2cc1OC` [Example 213, 2-(cyclopropylmethoxy)-5-{[6-methoxy-7-(2-methoxyethoxy)quinazolin-4-yl]amino}benzo-1,4-quinone], for which the figures for the IC50 (against KDR; in series [2] (no wash); in series [2] (wash out)) were 236 to 400 nM, 4.7 nM and 16.9 nM, respectively.
The matching figures for `COCCOc1cc2ncnc(NC3=CC(=O)C(OCCN(C)c4ccccc4)=CC3=O)c2cc1OC` [Example 222, 2-{[6-methoxy-7-(2-methoxyethoxy)quinazolin-4-yl]amino}-5-{2-[methyl(phenyl)amino]ethoxy}benzo-1,4-quinone]: 175 to 210 nM, 78.6 nM and 128 nM.
For `COCCOc1cc2ncnc(NC3=CC(=O)C(Br)=CC3=O)c2cc1OC` [Example 231, 2-bromo-5-{[6-methoxy-7-(2-methoxyethoxy)quinazolin-4-yl]amino}benzo-1,4-quinone], the melting point lay in the range of 200 to 210 °C.
`COCCOc1cc2ncnc(NC3=CC(=O)C(Oc4ccc(-n5ccnc5)cc4)=CC3=O)c2cc1OCCOC` [Example 341, 2-{[6,7-bis(2-methoxyethoxy)quinazolin-4-yl]amino}-5-[4-(1H-imidazol-1-yl)phenoxy]benzo-1,4-quinone]: the melting point lay in the range of 109 to 115 °C.
Still for that read-out and setting: as for `COc1cc2c(NC3=CC(=O)C(Cl)=CC3=O)ncnc2cc1OCC1CCCCO1` (stereo not drawn) [Example 345, 2-chloro-5-{[6-methoxy-7-(tetrahydro-2H-pyran-2-ylmethoxy)quinazolin-4-yl]amino}benzo-1,4-quinone], the figure is 215 to 220 °C.

Usually melting point stands for the temperature, or range, at which the solid turns liquid. Broadly, the IC50 is the point on the concentration scale where inhibition reaches its midpoint. Usually inhibition stands for the relative decrease from the control value, in per cent.
